In patent publication US12622866B2, “Topical compositions and methods” (MARY KAY INC., priority 2018, dated 2026):

Tests used:
B16-F1 melanocytes = assay: B16 pigmentation assay (melanogenesis); type: cell-based, mouse; settings: ingredient 1%, 6 days, melanin secretion by absorbance at 405 nm
Text: Melanogenesis is the process by which melanocytes produce melanin, a naturally produced pigment that imparts color to skin, hair, and eyes. Inhibiting melanogenesis is beneficial to prevent skin darkening and lighten dark spots associated with aging. This bioassay utilizes B16-F1 melanocytes (ATCC), an immortalized mouse melanoma cell line, to analyze the effect of compounds on melanogenesis. The endpoint of this assay is a spectrophotometric measurement of melanin production and cellular viability. B16-F1 melanocytes, were cultivated in standard DMEM growth medium with 10% fetal bovine serum (Mediatech) at 37° C. in 10% CO2 and then treated with the ingredients in the amounts indicated in Table 2 for 6 days. Following incubation, melanin secretion was measured by absorbance at 405 nm and cellular viability is quantified.

[1] = Antioxidant (AO) assay, total anti-oxidant capacity; type: biochemical; settings: ingredient 1%, Cayman Anti-Oxidant capacity kit #709001
Text: The assay relies on the ability of antioxidants in the sample to inhibit the oxidation of ABTS® (2,2′-azino-di-[3-ethylbenzthiazoline sulphonate]) to ABTS®·+by metmyoglobin. The antioxidant system of living organisms includes enzymes such as superoxide dismutase, catalase, and glutathione peroxidase; macromolecules such as albumin, ceruloplasmin, and ferritin; and an array of small molecules, including ascorbic acid, α-tocopherol, β-carotene, reduced glutathione, uric acid, and bilirubin. The sum of endogenous and food-derived antioxidants represents the total antioxidant activity of the extracellular fluid. Cooperation of all the different antioxidants provides greater protection against attack by reactive oxygen or nitrogen radicals, than any single compound alone. Thus, the overall antioxidant capacity may give more relevant biological information compared to that obtained by the measurement of individual components, as it considers the cumulative effect of all antioxidants present in plasma and body fluids. The capacity of the antioxidants in the sample to prevent ABTS oxidation was compared with that of Trolox, a water-soluble tocopherol analogue, and was quantified as molar Trolox equivalents. […]

[2] = system: Type I procollagen peptide secretion by human adult epidermal fibroblasts; assay: Collagen stimulation assay; type: cell-based; settings: ingredient 1%, 3 days, ELISA
Text: Collagen is an extracellular matrix protein critical for skin structure. Increased synthesis of collagen helps improve skin firmness and elasticity. This bioassay was used to examine effects on the production of procollagen peptide (a precursor to collagen) by human epidermal fibroblasts. The endpoint of this assay was a spectrophotometric measurement that reflects the presence of procollagen peptide and cellular viability. The assay employed the quantitative sandwich enzyme immunoassay technique whereby a monoclonal antibody specific for procollagen peptide was pre-coated onto a microplate. Standards and samples were pipetted into the wells and any procollagen peptide present was bound by the immobilized antibody. […] Color development was stopped and the intensity of the color at 450 nm was measured using a microplate reader.
For generation of samples and controls, subconfluent normal human adult epidermal fibroblasts (Cascade Biologics) were cultivated in standard DMEM growth medium with 10% fetal bovine serum (Mediatech) at 37° C. in 10% CO2. […] Following incubation, cell culture medium was collected and the amount of Type I procollagen peptide secretion was quantified using the sandwich enzyme linked immuno-sorbant assay (ELISA) from Takara (#MK101) as explained above. […]

[3] = system: lysyl oxidase expression in skin cells; assay: Lysyl oxidase assay; type: cell-based; settings: ingredient 1%
Procedure: A lysyl oxidase assay was performed on skin cells (e.g., epidermal keratinocytes, fibroblasts, and/or dermal endothelial cells) to determine the ability of the ingredient listed in Table 8 to stimulate expression of lysyl oxidase in skin. Lysyl oxidase can catalyze crosslinking of elastin and collagens, thereby providing for a more structurally rigid matrix for skin. By increasing expression of lysyl oxidase, increased cross-linking of elastin and collagens can occur, which can be beneficial in reducing the appearance of fine lines, wrinkles, sagging skin, and/or non-elastic skin.

mushroom tyrosinase = assay: Mushroom tyrosinase activity assay; type: biochemical; settings: ingredient 1%, substrate L-Dopa, read at 490 nm
Procedure: In mammalian cells, tyrosinase catalyzes two steps in the multi-step biosynthesis of melanin pigments from tyrosine (and from the polymerization of dopachrome). Tyrosinase is localized in melanocytes and produces melanin (aromatic quinone compounds) that imparts color to skin, hair, and eyes. Purified mushroom tyrosinase (Sigma) was incubated with its substrate L-Dopa (Fisher) in the presence of each of the ingredients in the amounts indicated in Table 3. Pigment formation was evaluated by colorimetric plate reading at 490 nm. The percent inhibition of mushroom tyrosinase activity was calculated compared to non-treated controls to determine the ability of tested ingredients to inhibit the activity of purified enzyme.

[4] = system: TNF-α production by human epidermal keratinocytes; assay: Tumor necrosis factor alpha (TNF-α) assay; type: cell-based; settings: ingredient 1%, PMA 10 ng/ml, 6 hours, ELISA
Text: The prototype ligand of the TNF superfamily, TNF-α, is a pleiotropic cytokine that plays a central role in inflammation. Increase in its expression is associated with an up regulation in pro-inflammatory activity. This bioassay was used to analyze the effect of the ingredients in the amounts listed in Table 9 on the production of TNF-α by human epidermal keratinocytes. The endpoint of this assay was a spectrophotometric measurement that reflects the presence of TNF-α and cellular viability. The assay employs the quantitative sandwich enzyme immunoassay technique whereby a monoclonal antibody specific for TNF-α has been pre-coated onto a microplate. Standards and samples were pipetted into the wells and any TNF-α present is bound by the immobilized antibody. After washing away any unbound substances, an enzyme-linked polyclonal antibody specific for TNF-α is added to the wells. Following a wash to remove any unbound antibody-enzyme reagent, a substrate solution is added to the wells and color develops in proportion to the amount of TNF-α bound in the initial step using a microplate reader for detection at 450 nm. The color development was stopped and the intensity of the color was measured. […] Following incubation, cell culture medium was collected and the amount of TNF-a secretion quantified using a sandwich enzyme linked immuno-sorbant assay (ELISA) from R&D Systems (#DTA00C).

Row | Molecule | % of Inhibition (B16 melanogenesis) (B16-F1 melanocytes) [%] | % of Inhibition (Anti-oxidant capacity) [1] [%] | % of expression (Collagen 1 Expression) [2] [%] | % of expression (Lysyl Oxidase) [3] [%] | % of Inhibition (Mushroom Tyrosinase Inhibition) (mushroom tyrosinase) [%] | % of expression (TNF-α Expression) [4] [%]
1 | NC(=O)c1cccnc1 [Niacinamide] | 30 | – | – | – | – | –
2 | Sodium ascorbyl phosphate [Stay C 50] | – | 97 | 36 | 500 | 26 | 85
